Test results from patent EP4361137A1, “PRUNE1 INHIBITORS AND THERAPEUTIC USE THEREOF” (CEINGE Biotecnologie Avanzate Franco Salvatore s.c. a r.l., priority 2022, dated 2024).
Where “and” joins values, the source holds several entries; their conditions need not be identical. Equal values may be shown once. Entries after “also recorded” stand apart in the source; their conditions may differ.

What was measured:
MATH1-Prune1/ TP53-/- = test: Orthotopic implantation of MATH1-Prune1/TP53-/- cells in immunocompetent syngeneic mice, tumor growth; assay type: in vivo, FVB WT mice; conditions: AA7.1 at 30 mg/kg/day or 60 mg/kg/day intraperitoneally
Method: MATH1-Prune1/ TP53-/- were implanted into the right cerebellar hemisphere of female (n.10) immunocompetent syngeneic mice model (5 weeks old, strain: FVB WT) to establish intracerebellar MATH1-Prune1/ TP53-/- models. Mice were anaesthetised with Ketamine/ Xylazine (87.5 mg/kg, 12.5 mg/kg, respectively). The mice were then placed in a stereotactic frame by hooking their incisors onto the frame hold. A small skin incision (length, 1 mm) and a burr hole (diameter, 0.7 mm) were created using a microsurgical drill (Fine Science Tools, Foster City, CA, USA of MATH1-Prune1/ TP53-/- (1.5 ×10^5) were resuspended in 10 µL PBS and injected slowly through the burr hole into the right cerebellar hemisphere (stereotactic coordinates from Bregma: anteroposterior, 5.5 mm; right lateral, 2.1 mm; dorsoventral 5.0 mm), with a steady force over 30 s, using a 10-AL, 26-gauge Hamilton Gastight model 1701RN syringe needle (SigmaAldrich) that was inserted perpendicular to the cranial surface. The incision was sutured using Safil polyglycolic acid synthetic absorbable suture (6/0). The mice were kept on a warming blanket after the surgery, to help them to maintain their body temperature. Their mobility and respiratory patterns were observed continuously, and once the mice had recovered from the anaesthesia; they were place in a sterile housing cage. The mice were monitored daily for development of potential neurological deficits. 10 days after the implantation of the cells, the mice were imaged, and tumour growth was evaluated by bioluminescence acquisition using an imaging system (IVIS 3D Illumina; Xenogen/ Caliper). For the acquisitions, the mice were anaesthetised by inhalational of isoflurane, and the D-luciferin (122799; PerkinElmer) (15 mg/mL stock) was injected intraperitoneally (100 µL per 10 g body weight). At 5 min from the luciferin injection, the mice were imaged for 3 min. To quantify the bioluminescence, the integrated fluxes of photons (p/s) within each area of interest were determined using the Living Images Software Package 3.2 (Xenogen-Perkin Elmer). […] After 17 days from tumour implantation (i.e., after one weeks of LEO-AA7.5(S)T treatment), the mice were sacrificed, and the organs were collected for immunohistochemistry and immunofluorescence analyses.
Paraffin sections of the tumor specimens (thickness, 3 µm) were deparaffinised and rehydrated by immersing the slides in Xylene Substitute (A5597; Sigma), as three washes for 5 min each, then serially in 100%, 95%, 70%, 50%, and 30% ethanol (two washes for 10 min, for each), and deionised water (two washes, for 5 min each). The washes were then followed by PBS, PBS containing 0.02% Triton-X 100 (215680010; Acros Organics), and PBS (two washes for 5 min, for each). For antigen retrieval, the slides were immersed in boiling 10 mM sodium citrate buffer (pH 6.0) using a microwave oven, and then maintained at sub-boiling temperature for 10 min. The slides were left to cool at room temperature for 30 min. The sections were then washed by immersion in distilled water for 5 min. To block endogenous peroxidase activity, the tissue sections were placed in a solution with 3.0% hydrogen peroxide in methanol for 15 min. Then, to decrease the nonspecific background fluorescence, the tissues were digested by treating them with a solution containing 0.2% trypsin (T2600000; Sigma-Aldrich) and 0.001% CaCl2 for 10 min at 37 °C, in a humidified chamber. The slides were then washed in PBS, PBS containing 0.02% Triton-X 100 (215680010; Acros Organics), and PBS (two washes for 5 min, for each). The tissue sections were blocked with 6% bovine serum albumin (A9418; Sigma), 5% fetal bovine serum (ECS0180L; Euroclone), and 20 mM MgCl2 in PBS containing 0.02% Triton-X 100, for 1 h at room temperature, and incubated overnight with the primary antibodies at 4 °C in a humidified chamber. […]

[1] = 15, 30, and 60 mg/kg intraperitoneally daily for 1 week; Ferrucci et al.; cited from earlier work
D425-MED cells [2] = conditions: Ferrucci et al., 2018, read-out: IC50 reported for AA7.1 in the same D425-Med cells; cited from earlier work
[3] = test system: MATH1-Prune1/TP53-/- cells; test: Real-time cell proliferation assay (cell index, xCELLigence); assay type: cell-based, murine; conditions: impedance every 2 min over 24 h
Method: Primary murine TNBC cells from tumors generated by MMTV-Prune1/Wnt1 mice [Ferrucci et al., 2021] and Primary murine Medulloblastoma Group 3 cells from tumors generated MATH-Prune1/TP53-/- mice were obtained (2 months from tumor onset).
(§1) Cellular proliferation rates were determined with the xCELLigence system (Roche). D425-MED, MATH-Prune1/TP53-/- and MMTV-Prune1/Wnt1 cells (8 × 10^3) were treated with increasing concentrations of LEO-AA7.5(S)T, harvested, and then added to a single well of an xCELLigence E-plate 16. The proliferation rates were determined at 2-min intervals by measuring the impedance changes across the electrodes at the bottoms of the wells. These cell index values were calculated by the xCELLigence RTCA software. with vehicle-treated cells were the negative control. Impedance was measured every 2 min over 24 hours. The IC50 values were calculated through nonlinear regression analysis performed with Graph Pad Prism 9 ([inhibitor] vs. response (three parameters). Data are means ± SD of three independent experiments.

Caspase 3 = Caspase 3 activity assay; assay type: cell-based, murine; conditions: MATH1-Prune1/TP53-/- cells; Vincristine 0.3 nM and 0.03 nM; LEO-AA7.5(S)T 10 µM; 24 hours
Method: MATH1-Prune1/TP53-/- cells (3×10^4) were plated in 96-well plate and treated with different doses of Vincristine (i.e., 0.3 nM or 0.03 nM) alone or combined to 10 µM LEO-AA7.5(S)T. Vehicle- (0.01% DMSO) treated cells were used as negative controls. Staurosporine-treated cells (1 µM) were used as positive controls of the assays. The assay was performed by using Caspase-3 Activity Assay Kit (#5723, Cell Signaling), by following the manufacture's instruction. Briefly, after 24 hours from the treatment started, cell medium was removed and 30 ul of cell lysis buffer (PI-7018, Cell Signaling) were added. The plate was then incubated for 5 minutes on ice. Later, 25 ul of cell lysate were mixed with 200 ul substrate solution B (#11734S, Cell Signaling) in a black 96 well plate. Fluorescence was detected by using a multimode plate reader (Enspire, 2300, PerkinElmer). The positive control AMC (25 µl, #11735S, Cell Signaling) mixed with 200 ul 1X assay buffer A (#11736S, Cell Signaling) was used as positive control of fluorescence.

D425-MED cells [4] = test: Real-time cell proliferation assay (cell index, xCELLigence); assay type: cell-based, human; conditions: combination with Vincristine
Method: J774A.1 murine macrophages (referred to as J774 cells; ATCC: #TIB-67), MMTV-Prune1-Wnt1 cells were grown in high-glucose Dulbecco's modified Eagle's medium (DMEM; Euroclone) supplemented with 20% (v/v) FBS, 2 mM L-glutamine, and 1% (v/v) antibiotics (Pen/Strep). D425-MED, D425-MED-Luc and […] cells were grown in high-glucose Dulbecco's modified Eagle's medium (DMEM; Euroclone) and Iscove's Modified Dulbecco's Medium (IMDM; Sigma) at 1:1 (v/v) dilution supplemented with 20% (v/v) FBS, 2 mM L-glutamine, 1% non-essential amino acid solution (M7145; Sigma-Aldrich/Merck), and 1% (v/v) antibiotics (Pen/Strep). The cells were grown at 37 °C in a humidified atmosphere of 95% air, 5% CO2 (v/v).
D425.MED and MMTV-Prune1/Wnt1 cells were plated and treated with increasing concentrations of LEO-AA7.5(S)T for 24 hours. Water-treated cells were used as negative control for the experiments.
as §1

## COc1ccc(CNc2ccnc(N3CC[C@@H](O)C3)n2)cc1 [AA7.1, (R)-1-(4-((4-methoxybenzyl)amino)pyrimidin-2-yl)pyrrolidin-3-ol, reference compound]
MATH1-Prune1/ TP53-/-
  MB progression / tumour growth in cerebellum (bioluminescence): inhibit MB progression; also recorded: impairment of tumour growth
[1]
  acute toxicity (hematological parameters, hepatotoxicity, nephrotoxicity): no immediate acute toxicity
D425-MED cells [2]
  IC50: 130 ± 52.1 µM

## CC[C@]1(O)C[C@H]2CN(CCc3c([nH]c4ccccc34)[C@@](C(=O)OC)(c3cc4c(cc3OC)N(C=O)[C@H]3[C@@](O)(C(=O)OC)[C@H](OC(C)=O)[C@]5(CC)C=CCN6CC[C@]43[C@@H]65)C2)C1 [Vincristine]
[3]
  half maximal inhibitory concentration (IC50) for the inhibition of cell proliferation index: 35 µM and 19,6 µM
Caspase 3
  Caspase 3 activation, single agent: activation of Caspase 3

## COc1ccc(CNc2ncnc(N3CCCC(CO)C3)n2)cc1 (stereo not drawn) [compound (I)]
D425-MED cells [4]
  dose of the chemotherapeutics diminished by synergistic action with Vincristine: more than 100 fold
